Results as given in US4757049A, “Process for using endogenous enkephalins and endorphins to stimulate the immune system of patients with aids” (TNI Pharmaceuticals, Inc., priority 1986, dated 1988).

How the values were obtained:
L1210 tumor cells = assay: Survival of BDF1 mice inoculated with 1×10^6 L1210 cells, cis-platin with and without methionine-enkephalin; assay type: in vivo, mouse
Procedure: In order to test for any synergistic effect of using an endogenous enkephalin with a known chemo-therapeutic agent, a study involving the inoculation of groups of mice with massive doses (1×10^6) of L1210 tumor cells was performed in a manner analogous to the previous examples transferred in RPMI 1640 at pH 7.

[1] = system: phenylalanyl-t RNA synthetase; conditions: Laidow et al, J.B.C. 255 (1980); cited from earlier work

Molecule: N.N.[Cl][Pt][Cl] [Cis-platin, cis-platin]
- Median Day of Death ED50 (L1210 tumor cells; 1×10^6 cells, cis-platin 2 mg/Kg, Met-enkephalin 30 mg/Kg s.c.): 10 days
- dead/tested, cumulative (L1210 tumor cells; 1×10^6 cells, cis-platin 2 mg/Kg, Met-enkephalin 30 mg/Kg s.c., day 9): 3/20
- Median Day of Death ED50 (L1210 tumor cells; 1×10^6 cells, cis-platin 4 mg/Kg, Met-enkephalin 30 mg/Kg s.c.): 10 days
- dead/tested, cumulative (L1210 tumor cells; 1×10^6 cells, cis-platin 8 mg/Kg single dose, Met-enkephalin 30 mg/Kg s.c., day 9): 2/20
- Median Day of Death ED50 (L1210 tumor cells; 1×10^6 cells, cis-platin 8 mg/Kg, Met-enkephalin 30 mg/Kg s.c.): 12 days
- dead/tested, cumulative (L1210 tumor cells; cis-platin 2 mg/Kg, Met-enkephalin 30 mg/Kg s.c., day 10): 13/20
- dead/tested, cumulative (L1210 tumor cells; cis-platin 2 mg/Kg, Met-enkephalin 30 mg/Kg s.c., day 11): 14/20
- dead/tested, cumulative (L1210 tumor cells; cis-platin 2 mg/Kg, Met-enkephalin 30 mg/Kg s.c., day 12): 15/20
- dead/tested, cumulative (L1210 tumor cells; cis-platin 2 mg/Kg, Met-enkephalin 30 mg/Kg s.c., day 13): 17/20
- dead/tested, cumulative (L1210 tumor cells; cis-platin 2 mg/Kg, Met-enkephalin 30 mg/Kg s.c., day 14): 19/20
- dead/tested, cumulative (L1210 tumor cells; cis-platin 4 mg/Kg, Met-enkephalin 30 mg/Kg s.c., day 11): 10/20
- dead/tested, cumulative (L1210 tumor cells; cis-platin 4 mg/Kg, Met-enkephalin 30 mg/Kg s.c., day 12): 15/20
- dead/tested, cumulative (L1210 tumor cells; cis-platin 4 mg/Kg, Met-enkephalin 30 mg/Kg s.c., day 13): 19/20
- dead/tested, cumulative (L1210 tumor cells; cis-platin 4 mg/Kg, Met-enkephalin 30 mg/Kg s.c., day 15): 20/20
- dead/tested, cumulative (L1210 tumor cells; cis-platin 8 mg/Kg, Met-enkephalin 30 mg/Kg s.c., day 12): 4/20
- dead/tested, cumulative (L1210 tumor cells; cis-platin 8 mg/Kg, Met-enkephalin 30 mg/Kg s.c., day 13): 7/20
- dead/tested, cumulative (L1210 tumor cells; cis-platin 8 mg/Kg, Met-enkephalin 30 mg/Kg s.c., day 14): 12/20
- dead/tested, cumulative (L1210 tumor cells; cis-platin 8 mg/Kg, Met-enkephalin 30 mg/Kg s.c., day 15): 16/20
- dead/tested, cumulative (L1210 tumor cells; cis-platin 8 mg/Kg, Met-enkephalin 30 mg/Kg s.c., day 16): 18/20
- dead/tested, cumulative (L1210 tumor cells; cis-platin 8 mg/Kg, day 18): 19/20
- dead/tested, cumulative (L1210 tumor cells; cis-platin 8 mg/Kg, day 20): 20/20

Molecule: beta-endorphin
- effect on phenylalanyl-t RNA synthetase [1]: inhibit
